Activity calls are given as the source filed them. No rule for the calls is given here.

This series deals with rodent carcinogenicity bioassays, tumor incidence. Description: CCRIS carcinogenicity studies. In outline: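 Archive of carcinogenicity, mutagenicity, tumor promotion and tumor inhibition results drawn from journals, NCI reports and other sources, expert-reviewed; covers 1985-2011 and is no longer updated.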

`Clc1ccc2c(c1)C(c1ccccc1)=NCc1nncn1-2`: the carcinogen call reads like this: (Species: MOUSE, Strain/Sex: B6C3F1/FEMALE, Route: ORAL, Dose: 0, 0.8, 3, 10 MG/KG IN DIET FOR 2 YR (STUDY DURATION: 2 YR), Dose: 0, 0.8, 3, 10 MG/KG IN DIET FOR 2 YR (STUDY DURATION: 2 YR)) “inactive; negative”; (Species: MOUSE, Strain/Sex: B6C3F1/FEMALE, Route: ORAL, Dose: 0, 0.8, 3, 10 MG/KG/D IN DIET FOR 2 YR (STUDY DURATION: 2 YR), Dose: 0, 0.8, 3, 10 MG/KG/D IN DIET FOR 2 YR (STUDY DURATION: 2 YR)) “inactive; negative”; (Species: MOUSE, Strain/Sex: B6C3F1/MALE, Route: ORAL, Dose: 0, 0.8, 3, 10 MG/KG IN DIET FOR 2 YR (STUDY DURATION: 2 YR), Dose: 0, 0.8, 3, 10 MG/KG IN DIET FOR 2 YR (STUDY DURATION: 2 YR)) “inactive; negative”; (Species: MOUSE, Strain/Sex: B6C3F1/MALE, Route: ORAL, Dose: 0, 0.8, 3, 10 MG/KG/D IN DIET FOR 2 YR (STUDY DURATION: 2 YR), Dose: 0, 0.8, 3, 10 MG/KG/D IN DIET FOR 2 YR (STUDY DURATION: 2 YR)) “inactive; negative”; (Species: RAT, Strain/Sex: SPRAGUE-DAWLEY/FEMALE, Route: ORAL, Dose: 0, 0.5, 2, 10 MG/KG IN DIET FOR 2 YR (STUDY DURATION: 2 YR), Dose: 0, 0.5, 2, 10 MG/KG IN DIET FOR 2 YR (STUDY DURATION: 2 YR)) “inactive; negative”; (Species: RAT, Strain/Sex: SPRAGUE-DAWLEY/MALE, Route: ORAL, Dose: 0, 0.5, 2, 10 MG/KG IN DIET FOR 2 YR (STUDY DURATION: 2 YR), Dose: 0, 0.5, 2, 10 MG/KG IN DIET FOR 2 YR (STUDY DURATION: 2 YR)) “inactive; negative”. The carcinogen call reads like this: (Species: RAT, Strain/Sex: STRAIN-CD/FEMALE, Route: ORAL, Dose: 0, 0.5, 2, 10 MG/KG/D IN DIET FOR 2 YR (STUDY DURATION: 2 YR), Dose: 0, 0.5, 2, 10 MG/KG/D IN DIET FOR 2 YR (STUDY DURATION: 2 YR)) “inactive; negative”; (Species: RAT, Strain/Sex: STRAIN-CD/MALE, Route: ORAL, Dose: 0, 0.5, 2, 10 MG/KG/D IN DIET FOR 2 YR (STUDY DURATION: 2 YR), Dose: 0, 0.5, 2, 10 MG/KG/D IN DIET FOR 2 YR (STUDY DURATION: 2 YR)) “inactive; negative”.

Regarding `C#C[C@]1(O)CC[C@H]2[C@@H]3CCC4=CC(=O)CC[C@@H]4[C@H]3CC[C@@]21C`, the carcinogen call (Species: MOUSE, Route: ORAL, Tumor Site: Type of Lesion: LIVER, LUNG) is “active; positive”.

As to `[Ni+2].[OH-].[OH-]`, for the setting “Species: RAT, Strain/Sex: WISTAR, Route: INTRAMUSCULAR IMPLANT, Tumor Site: Type of Lesion: IMPLANT SITE”, the carcinogen call was “active; positive”.

With `CC1CO1` (stereo not drawn), the carcinogen call is “active; positive” (Species: MOUSE, Strain/Sex: B6C3F1/FEMALE, Route: INHALATION, Dose: 0, 200, 400 PPM 6 HR/D, 5 D/WK FOR 103 WK, Dose: 0, 200, 400 PPM 6 HR/D, 5 D/WK FOR 103 WK, Tumor Site: Type of Lesion: NASAL TURBINATES: HEMANGIOMA OR HEMANGIOSARCOMA); “active; positive” (Species: MOUSE, Strain/Sex: B6C3F1/MALE, Route: INHALATION, Dose: 0, 200, 400 PPM 6 HR/D, 5 D/WK FOR 103 WK, Dose: 0, 200, 400 PPM 6 HR/D, 5 D/WK FOR 103 WK, Tumor Site: Type of Lesion: NASAL TURBINATES: HEMANGIOMA, HEMANGIOSARCOMA); “active; positive” (Species: MOUSE, Strain/Sex: NMRI/FEMALE, Route: SUBCUTANEOUS, Dose: 0, 0.1, 0.3, 1, 2.5 MG/MOUSE IN TRICAPRYLIN 1/WK FOR 95 WK (STUDY DURATION: 110 WK), Dose: 0, 0.1, 0.3, 1, 2.5 MG/MOUSE IN TRICAPRYLIN 1/WK FOR 95 WK (STUDY DURATION: 110 WK), Tumor Site: Type of Lesion: INJECTION SITE: TUMOR); “active; positive” (Species: RAT, Route: SUBCUTANEOUS, Tumor Site: Type of Lesion: INJECTION SITE); “active; positive” (Species: RAT, Strain/Sex: F344/FEMALE, Route: INHALATION, Dose: 0, 200, 400 PPM 6 HR/D, 5 D/WK FOR 103 WK, Dose: 0, 200, 400 PPM 6 HR/D, 5 D/WK FOR 103 WK, Tumor Site: Type of Lesion: NASAL TURBINATES: PAPILLARY ADENOMA); “active; positive” (Species: RAT, Strain/Sex: F344/MALE, Route: INHALATION, Dose: 0, 100, 300 PPM IN AIR 7 HR/D 5 D/WK FOR 104 WK (STUDY DURATION: 2 YR), Dose: 0, 100, 300 PPM IN AIR 7 HR/D 5 D/WK FOR 104 WK (STUDY DURATION: 2 YR), Tumor Site: Type of Lesion: ADRENAL GLAND: PHEOCHROMOCYTOMA, PITUITARY GLAND: ADENOMA). Also, the carcinogen call reads like this: (Species: RAT, Strain/Sex: F344/MALE, Route: INHALATION, Dose: 0, 200, 400 PPM 6 HR/D, 5 D/WK FOR 103 WK, Dose: 0, 200, 400 PPM 6 HR/D, 5 D/WK FOR 103 WK, Tumor Site: Type of Lesion: NASAL TURBINATES: PAPILLARY ADENOMA) “active; positive”; (Species: RAT, Strain/Sex: SPRAGUE-DAWLEY/FEMALE, Route: GAVAGE, Dose: 15, 60 MG/KG IN SALAD OIL 2/WK FOR UP TO 150 WK, Tumor Site: Type of Lesion: FORESTOMACH: SQUAMOUS CELL CARCINOMA) “active; positive”; (Species: RAT, Strain/Sex: SPRAGUE-DAWLEY/MALE, Route: INHALATION, Dose: 0, 435, 870, 1740 PPM 6 HR/D 5 D/WK FOR 30 D EXCEPT 1740 PPM GROUP WHICH WAS EXPOSED FOR 5 D (STUDY DURATION: LIFETIME), Dose: 0, 435, 870, 1740 PPM 6 HR/D 5 D/WK FOR 30 D EXCEPT 1740 PPM GROUP WHICH WAS EXPOSED FOR 5 D (STUDY DURATION: LIFETIME)) “inactive; negative”.

For `CCCCCCCCCCCC(=O)N(CCO)CCO`, the carcinogen call (Species: MOUSE, Strain/Sex: B6C3F1/FEMALE, Route: DERMAL, Dose: 0, 100, 200 MG/KG BW IN ETHANOL FOR 105 WK (STUDY DURATION: 105 WK), Dose: 0, 100, 200 MG/KG BW IN ETHANOL FOR 105 WK (STUDY DURATION: 105 WK), Tumor Site: Type of Lesion: LIVER: HEPATOCELLULAR ADENOMA, HEPATOCELLULAR ADENOMA OR CARCINOMA, HEPATOCELLULAR CARCINOMA OR HEPATOBLASTOMA, HEPATOCE) is “equivocal”; the carcinogen call (Species: MOUSE, Strain/Sex: B6C3F1/MALE, Route: DERMAL, Dose: 0, 100, 200 MG/KG BW IN ETHANOL FOR 105 WK (STUDY DURATION: 105 WK), Dose: 0, 100, 200 MG/KG BW IN ETHANOL FOR 105 WK (STUDY DURATION: 105 WK)) is “inactive; negative”; the carcinogen call (Species: RAT, Strain/Sex: F344/N/FEMALE, Route: DERMAL, Dose: 0, 50, 100 MG/KG BW IN ETHANOL FOR 105 WK (STUDY DURATION: 105 WK), Dose: 0, 50, 100 MG/KG BW IN ETHANOL FOR 105 WK (STUDY DURATION: 105 WK)) is “inactive; negative”; the carcinogen call (Species: RAT, Strain/Sex: F344/N/MALE, Route: DERMAL, Dose: 0, 50, 100 MG/KG BW IN ETHANOL FOR 104 WK (STUDY DURATION: 104 WK), Dose: 0, 50, 100 MG/KG BW IN ETHANOL FOR 104 WK (STUDY DURATION: 104 WK)) is “inactive; negative”.

For `c1ccc2c(c1)c1cccc3ccc4cccc2c4c31`, the carcinogen call (Species: RAT, Strain/Sex: OSBORNE-MENDEL/FEMALE, Route: LUNG IMPLANT, Dose: 0, 0.2, 1.0, 5.0 MG IN BEESWAX/TRIOCTANOIN (STUDY DURATION: LIFETIME), Dose: 0, 0.2, 1.0, 5.0 MG IN BEESWAX/TRIOCTANOIN (STUDY DURATION: LIFETIME)) is “inactive; negative”.

As for `O=C1C=Cc2cccc3cccc1c23`, the carcinogen call is, setting by setting: (Species: MOUSE, Strain/Sex: ICR/FEMALE, Route: INTRAPERITONEAL, Dose: 0, 0.84, 2.1, 4.2 MG (TOTAL DOSES) ADMINISTERED TO NEWBORN MICE AS 1/7 ON DAY 1, 2/7 ON DAY 8 AND 4/7 ON DAY 15 (STUDY D, Dose: 0, 0.84, 2.1, 4.2 MG (TOTAL DOSES) ADMINISTERED TO NEWBORN MICE AS 1/7 ON DAY 1, 2/7 ON DAY 8 AND 4/7 ON DAY 15 (STUDY D) “inactive; negative”; (Species: MOUSE, Strain/Sex: ICR/MALE, Route: INTRAPERITONEAL, Dose: 0, 0.84, 2.1, 4.2 MG (TOTAL DOSES) ADMINISTERED TO NEWBORN MICE AS 1/7 ON DAY 1, 2/7 ON DAY 8 AND 4/7 ON DAY 15 (STUDY D, Dose: 0, 0.84, 2.1, 4.2 MG (TOTAL DOSES) ADMINISTERED TO NEWBORN MICE AS 1/7 ON DAY 1, 2/7 ON DAY 8 AND 4/7 ON DAY 15 (STUDY D, Tumor Site: Type of Lesion: LUNG: TUMOR) “active; positive”.

With `CN(C)CCN(Cc1ccsc1)c1ccccn1`, the carcinogen call runs as follows: (Species: RAT, Strain/Sex: SPRAGUE-DAWLEY/FEMALE, Route: ORAL, Dose: 0, 500, 1000 PPM IN DRINKING WATER 5D/WK FOR LIFE (STUDY DURATION: 572-731 D), Dose: 0, 500, 1000 PPM IN DRINKING WATER 5D/WK FOR LIFE (STUDY DURATION: 572-731 D)) “inactive; negative”; (Species: RAT, Strain/Sex: SPRAGUE-DAWLEY/MALE, Route: ORAL, Dose: 0, 500, 1000 PPM IN DRINKING WATER 5D/WK FOR LIFE (STUDY DURATION: 515-576 D), Dose: 0, 500, 1000 PPM IN DRINKING WATER 5D/WK FOR LIFE (STUDY DURATION: 515-576 D)) “inactive; negative”.

The values are drawn from PubChem BioAssay AID1259411 (Chemical Carcinogenesis Research Information System (CCRIS), 2018).
